Source: PubChem BioAssay AID248 (DTP/NCI, 2004)
“And” between values parts separate entries of the source, which are not always exact repeats. Equal entries are not always repeated. Toxic doses and inconclusive results are not listed. Rule as the data show it: active = T/C of 150% or more; inactive = T/C below 125%.

Test system: L1210 leukemia ip in BDF1 mice, survival T/C
Experiment: NCI In Vivo Anticancer Drug Screen. Data for tumor model L1210 Leukemia (intraperitoneal) in B6D2F1 (BDF1) mice
Details: endpoint: mean survival time, higher = longer survival
Outline: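 Survival endpoint. Drug-treated group vs vehicle group, expressed as T divided by C. Tumor passaged by transplantation.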

[1] = dose: 20.0 mg/kg/injection, schedule: Q01DX009 (ip), vehicle: Klucel (hydroxypropylcellulose) (HPC)
[2] = dose: 20.0 mg/kg/injection, schedule: Q04DX003 (ip), vehicle: Klucel (hydroxypropylcellulose) (HPC)
[3] = dose: 40.0 mg/kg/injection, schedule: Q04DX003 (ip), vehicle: Klucel (hydroxypropylcellulose) (HPC)
[4] = dose: 100.0 mg/kg/injection, schedule: Q04DX003 (ip), vehicle: Klucel (hydroxypropylcellulose) (HPC)
[5] = dose: 200.0 mg/kg/injection, schedule: Q04DX003 (ip), vehicle: Klucel (hydroxypropylcellulose) (HPC)
[6] = dose: 400.0 mg/kg/injection, schedule: Q04DX003 (ip), vehicle: Klucel (hydroxypropylcellulose) (HPC)
[7] = dose: 100.0 mg/kg/injection, schedule: Q01DX009 (ip), vehicle: Klucel (hydroxypropylcellulose) (HPC)
[8] = dose: 200.0 mg/kg/injection, schedule: Q01DX009 (ip), vehicle: Klucel (hydroxypropylcellulose) (HPC)
[9] = dose: 400.0 mg/kg/injection, schedule: Q01DX009 (ip), vehicle: Klucel (hydroxypropylcellulose) (HPC)
[10] = dose: 75.0 mg/kg/injection, schedule: Q01DX001 (ip), vehicle: saline
[11] = dose: 150.0 mg/kg/injection, schedule: Q01DX001 (ip), vehicle: saline
[12] = dose: 300.0 mg/kg/injection, schedule: Q01DX001 (ip), vehicle: saline
[13] = dose: 50.0 mg/kg/injection, schedule: Q01DX001 (ip), vehicle: saline
[14] = dose: 100.0 mg/kg/injection, schedule: Q01DX001 (ip), vehicle: saline
[15] = dose: 200.0 mg/kg/injection, schedule: Q01DX001 (ip), vehicle: saline
[16] = dose: 400.0 mg/kg/injection, schedule: Q01DX001 (ip), vehicle: saline
[17] = dose: 100.0 mg/kg/injection, schedule: Q04DX003 (ip), vehicle: saline with Tween-80
[18] = dose: 200.0 mg/kg/injection, schedule: Q04DX003 (ip), vehicle: saline with Tween-80
[19] = dose: 400.0 mg/kg/injection, schedule: Q04DX003 (ip), vehicle: saline with Tween-80
[20] = dose: 100.0 mg/kg/injection, schedule: Q04DX002 (ip), vehicle: Klucel (hydroxypropylcellulose) (HPC)
[21] = dose: 200.0 mg/kg/injection, schedule: Q04DX002 (ip), vehicle: Klucel (hydroxypropylcellulose) (HPC)
[22] = dose: 400.0 mg/kg/injection, schedule: Q04DX002 (ip), vehicle: Klucel (hydroxypropylcellulose) (HPC)

Measured: T/C

CC(C)(C)COC(=O)CCN1CC1
inactive: [1] 119 % of control | [2] 103 % of control | dose: 40.0 mg/kg/injection, schedule: Q01DX009 (ip), vehicle: Klucel (hydroxypropylcellulose) (HPC) 97 % of control | [3] 114 % of control | dose: 80.0 mg/kg/injection, schedule: Q04DX003 (ip), vehicle: Klucel (hydroxypropylcellulose) (HPC) 101 % of control | [4] 110 % of control

CC1CCCC(NC(=O)NCCCl)C1 (stereo not drawn)
inactive: [4] 95 % of control | [5] 87 % of control | [6] 98 % of control

CCCCCCCCCCOC(=O)N1C(=O)NC(=O)C1c1ccccc1 (stereo not drawn)
inactive: [7] 104 % of control | [4] 103 % of control | [8] 104 % of control | [5] 97 % of control | [9] 96 % of control | [6] 93 % of control

O=C(CCCCCC(=O)NO)NO
inactive: dose: 100.0 mg/kg/injection, schedule: Q04DX002 (ip), vehicle: saline with Tween-80 93 % of control | dose: 100.0 mg/kg/injection, schedule: Q04DX002 (ip), vehicle: saline 100 % of control | dose: 200.0 mg/kg/injection, schedule: Q04DX002 (ip), vehicle: saline with Tween-80 97 % of control | dose: 200.0 mg/kg/injection, schedule: Q04DX002 (ip), vehicle: saline 93 % of control | dose: 400.0 mg/kg/injection, schedule: Q04DX002 (ip), vehicle: saline with Tween-80 97 % of control | dose: 400.0 mg/kg/injection, schedule: Q04DX002 (ip), vehicle: saline 93 % of control

CC1C2CCC1(C)C(C=O)C2 (stereo not drawn)
inactive: [10] 93 % of control | [11] 88 % of control | [12] 88 % of control

COc1ccc2cc(C(C)=O)ccc2c1
inactive: [13] 117 % of control | [14] 105 % of control | [15] 100 % of control | [16] 110 % of control

CC(=O)C(Br)CC(C)C (stereo not drawn)
inactive: [10] 102 % of control | [11] 105 % of control | [12] 100 % of control

CSc1nc2nc(Cl)c(Cl)nc2[nH]1
inactive: dose: 12.5 mg/kg/injection, schedule: Q01DX009 (ip), vehicle: saline 105 % of control | dose: 25.0 mg/kg/injection, schedule: Q01DX009 (ip), vehicle: saline 102 % of control and 104 % of control | dose: 50.0 mg/kg/injection, schedule: Q01DX009 (ip), vehicle: saline 102 % of control | dose: 100.0 mg/kg/injection, schedule: Q01DX009 (ip), vehicle: saline 98 % of control | dose: 100.0 mg/kg/injection, schedule: Q04DX003 (ip), vehicle: saline 97 % of control | dose: 200.0 mg/kg/injection, schedule: Q04DX003 (ip), vehicle: saline 98 % of control | dose: 400.0 mg/kg/injection, schedule: Q04DX003 (ip), vehicle: saline 108 % of control

COC(=O)[C@]1(C)CCC[C@]2(C)c3ccc(C(C)C)cc3CC[C@@H]12
inactive: dose: 0.5 mg/kg/injection, schedule: Q01DX009 (ip), vehicle: Klucel (hydroxypropylcellulose) (HPC) 100 % of control | dose: 0.5 mg/kg/injection, schedule: Q04DX003 (ip), vehicle: Klucel (hydroxypropylcellulose) (HPC) 107 % of control | dose: 1.0 mg/kg/injection, schedule: Q01DX009 (ip), vehicle: Klucel (hydroxypropylcellulose) (HPC) 111 % of control | dose: 1.0 mg/kg/injection, schedule: Q04DX003 (ip), vehicle: Klucel (hydroxypropylcellulose) (HPC) 93 % of control | dose: 2.0 mg/kg/injection, schedule: Q01DX009 (ip), vehicle: Klucel (hydroxypropylcellulose) (HPC) 98 % of control | dose: 2.0 mg/kg/injection, schedule: Q04DX003 (ip), vehicle: Klucel (hydroxypropylcellulose) (HPC) 98 % of control | [17] 96 % of control | [18] 107 % of control | [19] 102 % of control

Cc1nn(C)c(Cl)c1[N+](=O)[O-]
inactive: [7] 102 % of control | [20] 102 % of control | [8] 97 % of control | [21] 91 % of control | [9] 100 % of control | [22] 94 % of control

O=C1NC2(C=CC(Br)CC2)C(=O)C12CCCCC2 (stereo not drawn) (tested in a mixture with another compound)
inactive: [11] 94 % of control

Cc1cc(C(C)(C)CC(C)(C)C)ccc1O
inactive: dose: 100.0 mg/kg/injection, schedule: Q01DX009 (sc), vehicle: olive oil, sesame oil, peanut oil 100 % of control | dose: 100.0 mg/kg/injection, schedule: Q04DX003 (sc), vehicle: olive oil, sesame oil, peanut oil 110 % of control | dose: 200.0 mg/kg/injection, schedule: Q01DX009 (sc), vehicle: olive oil, sesame oil, peanut oil 100 % of control | dose: 200.0 mg/kg/injection, schedule: Q04DX003 (sc), vehicle: olive oil, sesame oil, peanut oil 101 % of control | dose: 400.0 mg/kg/injection, schedule: Q01DX009 (sc), vehicle: olive oil, sesame oil, peanut oil 96 % of control | dose: 400.0 mg/kg/injection, schedule: Q04DX003 (sc), vehicle: olive oil, sesame oil, peanut oil 105 % of control

Cc1cccc(C)c1OC(=O)NC1CCCCC1
inactive: [20] 107 % of control | [21] 89 % of control | [22] 96 % of control

CSP(N)(N)=O
inactive: dose: 5.0 mg/kg/injection, schedule: Q01DX001 (ip), vehicle: saline 97 % of control | dose: 10.0 mg/kg/injection, schedule: Q01DX001 (ip), vehicle: saline 103 % of control

CCOP(=S)(NN=C1CCCC1)OCC
inactive: [14] 95 % of control | [15] 95 % of control

O=C(NC1CCCCC1)OCCOc1ccccc1
inactive: [7] 95 % of control | [8] 103 % of control | [9] 97 % of control

Cc1cc(C)n(/N=C/c2ccc3c(c2)CCC3)c(=O)c1C#N
inactive: [5] 95 % of control | [6] 90 % of control

c1ccc(N=C(c2ccccc2)c2ccccc2)cc1
inactive: [13] 102 % of control | [14] 98 % of control | [15] 98 % of control | [16] 102 % of control

O=C(NC1CCCC1)c1ccc(C(=O)NC2CCCC2)cc1
inactive: [14] 91 % of control | [15] 91 % of control

CCOC(C)(NCc1ccccc1)OCC
inactive: dose: 25.0 mg/kg/injection, schedule: Q04DX002 (ip), vehicle: Klucel (hydroxypropylcellulose) (HPC) 86 % of control | dose: 50.0 mg/kg/injection, schedule: Q04DX002 (ip), vehicle: Klucel (hydroxypropylcellulose) (HPC) 111 % of control

C/C(=N\NC(N)=S)c1ccccc1
inactive: dose: 5.0 mg/kg/injection, schedule: Q01DX009 (ip), vehicle: Klucel (hydroxypropylcellulose) (HPC) 97 % of control | dose: 5.0 mg/kg/injection, schedule: Q04DX003 (ip), vehicle: Klucel (hydroxypropylcellulose) (HPC) 97 % of control | dose: 10.0 mg/kg/injection, schedule: Q01DX009 (ip), vehicle: Klucel (hydroxypropylcellulose) (HPC) 110 % of control | dose: 10.0 mg/kg/injection, schedule: Q04DX003 (ip), vehicle: Klucel (hydroxypropylcellulose) (HPC) 103 % of control | [1] 105 % of control | [2] 98 % of control and 117 % of control | dose: 30.0 mg/kg/injection, schedule: Q04DX003 (ip), vehicle: Klucel (hydroxypropylcellulose) (HPC) 95 % of control | [3] 120 % of control

O=c1[nH]c(=O)n2n1CC(Br)C(Br)C2 (stereo not drawn)
inactive: dose: 100.0 mg/kg/injection, schedule: Q01DX009 (ip), vehicle: saline with Tween-80 94 % of control | [17] 106 % of control | dose: 200.0 mg/kg/injection, schedule: Q01DX009 (ip), vehicle: saline with Tween-80 96 % of control | [18] 110 % of control | dose: 400.0 mg/kg/injection, schedule: Q01DX009 (ip), vehicle: saline with Tween-80 100 % of control | [19] 94 % of control

CCOc1ccccc1NC(=O)c1ccc(Cl)cc1Cl
inactive: dose: 50.0 mg/kg/injection, schedule: Q01DX009 (ip), vehicle: Klucel (hydroxypropylcellulose) (HPC) 92 % of control | [7] 92 % of control | [4] 89 % of control | [8] 86 % of control
